Experimental data published in patent US20050250093A1, “Hepatitis c virus sub-genomic replicons” (priority 2002, published 2005).

Assays:
[1] = tested on: Huh-7 cells; test: Analysis of replicon copy number by TaqMan; format: cell-based, human; details: real-time PCR with primers and probes in the neo gene on total RNA from replicon cells
Experimental: Next, replicon RNA was quantified by TaqMan. Real-time PCR was conducted with primers and probes in the neo gene on total RNA isolated from the replicon cells and on standard neo containing DNA. Copy numbers of the replicon were calculated based on standard curve generated from known amount of in vitro transcribed RNA. J4 M/S contained about 147 copies/cell, BB7-F1 contained 57 copies/cell, HCV 1a replicon has 165 copies/cell, BB7/H77NS5B has 29 copies/cell. For a positive control, HCV BB7 replicon that has 1500 copies/cell while Huh-7 cells served as negative controls.
Cells were trypinized and counted to determine cell number. The total cellular RNA was isolated using RNeasy Mini Kit (Qiagen) following the manufacturer's protocol. The RNA was stored at −80° C. or assayed by TaqMan quantitative RT-PCR. For analysis by TaqMan PCR, a master mix was prepared using TaqMan EZ RT-PCR Kit (Applied Biosystems #403028), TaqMan PDAR Control Reagent Human Cyclophilin (Applied Biosystems #4310883E), custom primer Neo^R fwd CCG GCT ACC TGC CCA TTC [SEQ ID NO:28] […] Data was analyzed by leaving the baseline to default level on both layers, and set a threshold to an equal value for both dye layers. […] The copy number for each replicon sample was calculated by taking the sample's Ct value, minus the line intercept, divided by the slope of the line.

[2] = tested on: Huh-7 cells; test: Stable replication / G418 resistance after electroporation of replicon RNA into Huh-7 cells; format: cell-based, human; details: replicon RNA prepared in vitro, G418 selection
Experimental: In the present invention, certain chimeric replicon constructs were generated from pHCVrep1b(BB7) with sequences substituted with either type 1aHCV H77 sequence or by HCV type 1b J4 strain sequence. […] The methods for constructing these replicons are described herein.
RNA transcribed from the above replicon DNA was electroporated into Huh-7 cells according to the procedures in the examples. G418 resistant cells were obtained by incubating the cells in G418-containing media. Once the cells were amplified, total cellular protein was separated on SDS-PAGE and probed by NS5A serum to assess whether HCV proteins were expressed. As predicted, all three replicon cell lines expressed NS5A as shown on figure. Genomic DNA and RNA were also isolated from each replicon cell lines. PCR reactions on genomic DNA were carried out to assess the possibility that the G418 resistance was due to expression of the phosphatransferase from integrated neo resistant gene into the Huh-7 cell genome. […] Therefore, the date indicate that it is unlikely that the resistance is due to integration of residue DNA in our RNA preparation into the genome of Huh-7 cells.
Five […]g of replicon RNA was electroporated into 5×10^6 cells of the hepatoma cell line, Huh-7. […] Huh-7 cells were pelleted, washed, counted and resuspended to a final concentration of 1×10^7 cells/ml in Opti-MEM media (Invitrogen). […]

[3] = tested on: type 1a replicon system; test: Susceptibility of the type 1a replicon system to interferon and antiviral agents; format: cell-based, HCV; details: type 1a replicon vs type 1b replicon system

HCV 1a replicon
replicon copy number [1]: 165 copies/cell
generation of stable cell lines / stable replication after transfection into Huh-7 cells [2]: able to stably replicate and confer resistance to G418

interferon
susceptibility compared with the type 1b replicon system [3]: similar
